Experimental findings from the NIST ThermoML archive (doi:10.1021/je7001094) are described below.

± gives the expanded uncertainty stated by the source.

The conditions of series [1]: Crystal; DTA.
Series [2] in a line: Molar enthalpy of transition or fusion. The conditions noted are these: Crystal; DSC.
Series [3] can be described thus: molar heat capacity at constant pressure. As to conditions: 323.1 K; 101.33 kPa; Crystal; Small sample (50 mg) DSC.

On to `COc1ccc([C@@H]2CC(=O)c3c(O)cc(O)cc3O2)cc1O`, for which the Normal melting temperature in series [1] worked out at 226.07 ± 2 °C. The “Molar enthalpy of transition or fusion” value in series [2] worked out at 8.58 ± 0.191 kcal/mol. Also, the “molar heat capacity at constant pressure” value in series [3] is on record as 906 ± 530 J/K/mol.

Consider `O=C1CC(c2ccc(O)cc2)Oc2cc(O)cc(O)c21` (stereo not drawn) [4',5,7-trihydroxyflavanone], for which the Normal melting temperature in series [1] is 250.00 ± 1.2 °C. In addition, the “Molar enthalpy of transition or fusion” value in series [2] stood at 9.51 ± 0.239 kcal/mol. For the same molecule, the “molar heat capacity at constant pressure” value in series [3] worked out at 259.7 ± 32 J/K/mol.

As for `O=c1cc(-c2ccccc2)oc2cc(O)cc(O)c12` [5,7-dihydroxyflavone], the Normal melting temperature in series [1] was 285.00 ± 2.2 °C. In series [2], the “Molar enthalpy of transition or fusion” value is 9.37 ± 0.215 kcal/mol. Also, the “molar heat capacity at constant pressure” value in series [3] is reported as 200.6 ± 110 J/K/mol.

Take `O=c1c(O[C@@H]2O[C@H]([C@H](O)CO)[C@H](O)[C@H]2O)c(-c2ccc(O)c(O)c2)oc2cc(O)cc(O)c12` [isoquercitrin]: the Normal melting temperature in series [1] was found to be 198.00 ± 3 °C. For the same molecule, the “Molar enthalpy of transition or fusion” value in series [2] amounted to 11.9 ± 0.502 kcal/mol. In addition, the “molar heat capacity at constant pressure” value in series [3] was 947.9 ± 30 J/K/mol.

As to `O=c1c(O)c(-c2ccc(O)c(O)c2)oc2cc(O)cc(O)c12` [quercetin], the Normal melting temperature in series [1] is 322.00 ± 1.4 °C. The “Molar enthalpy of transition or fusion” value in series [2] amounted to 9.92 ± 0.335 kcal/mol. In addition, in series [3], the “molar heat capacity at constant pressure” value came to 585.9 ± 170 J/K/mol.

Take `C[C@@H]1O[C@@H](OC[C@H]2O[C@@H](Oc3c(-c4ccc(O)c(O)c4)oc4cc(O)cc(O)c4c3=O)[C@H](O)[C@@H](O)[C@@H]2O)[C@H](O)[C@H](O)[C@H]1O` [rutin]: the Normal melting temperature in series [1] was 177.00 ± 3 °C. For the same molecule, in series [2], the “Molar enthalpy of transition or fusion” value turned out to be 19.7 ± 0.406 kcal/mol. The “molar heat capacity at constant pressure” value in series [3] is 915 ± 160 J/K/mol.
